This note sets out measurements from ChEMBL document CHEMBL1201862, “PubChem BioAssay data set” (2004).

Each structure is given as a SMILES string.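 Exposure lasted 48 hours, with cells grown in 96-well plates and compounds tested at five concentrations. GI50: concentration for 50% inhibition of growth.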 Calls of active or inactive are those of the source. Cut-off read from the data, not from the text of the source: active = GI50 up to about 1.1 µM and inactive = higher.

Test systems include A549; DU-145; EKVX; HCT-116; HOP-62; LXFL 529; MCF7; MDA-MB-435; MDA-N; MOLT-4; NCI-H460; NCI-H522; OVCAR-3; OVCAR-4; OVCAR-8; RXF 393; SN12C; SR; TK-10; U-251.
Common to all, as to test: NCI anticancer screen, dose series, 48 h

Take `O=C1C=CC(=O)c2c1ccc1c3ccccc3n(-c3ccccc3)c21`: the GI50 in the test with A549 is 20500 nM (inactive); with DU-145, 19800 nM (inactive); in the test with EKVX, 8770 nM (inactive); with HCT-116 it was 2370 nM (inactive); in the test on HOP-62, 11000 nM (inactive); in the test on LXFL 529, 3530 nM (inactive). The GI50 is 2110 nM (inactive) in the test on MCF7; 14100 nM (inactive) in the test on MDA-MB-435; 5640 nM (inactive) with MDA-N; 561 nM (active) with MOLT-4; 17900 nM (inactive) in the test with NCI-H460; 1640 nM (inactive) in the test with NCI-H522. The GI50 with OVCAR-3 is 8830 nM (inactive); with OVCAR-4, 13900 nM (inactive); in the test with OVCAR-8 it was 4560 nM (inactive); with RXF 393 it was 1710 nM (inactive); in the test with SN12C, 11500 nM (inactive); in the test with SR, 271 nM (active). In addition, the figures for the GI50 in the test on TK-10 and in the test with U-251 were 7660 nM (inactive) and 15200 nM (inactive), respectively.
With `COc1ccc(C(=O)c2cc(OC)c(OC)c(OC)c2)cc1`, the GI50 with A549 was 106 nM (active); in the test with DU-145, 205 nM (active); in the test with EKVX, 484 nM (active); in the test with HCT-116, 70.3 nM (active); with HOP-62, 700 nM (active); in the test with LXFL 529, 221 nM (active). The GI50 was 99.1 nM (active) with MCF7; 19.7 nM (active) with MDA-MB-435; 16 nM (active) with MDA-N; 71.5 nM (active) in the test on MOLT-4; 73.5 nM (active) in the test with NCI-H460; 71.5 nM (active) in the test with NCI-H522. The GI50 in the test with OVCAR-3 was 76.9 nM (active); in the test with OVCAR-4 it was 28600 nM (inactive); in the test on OVCAR-8 it was 382 nM (active); in the test with RXF 393, 331 nM (active); with SN12C, 705 nM (active); in the test on SR it was 58.1 nM (active). Besides, the GI50 in the test on TK-10 is 4110 nM (inactive); in the test on U-251, 206 nM (active).
Turning to `CC(C)(C)c1cc(C=C(C#N)C#N)cc(C(C)(C)C)c1O` [TYRPHOSTIN A9], the GI50 in the test on A549 was 316 nM (active); in the test with DU-145, 372 nM (active); in the test with HCT-116, 277 nM (active); in the test with HOP-62, 405 nM (active); in the test with LXFL 529 it was 518 nM (active); in the test on MCF7, 391 nM (active). Further, the GI50 is 760 nM (active) with MDA-MB-435; 608 nM (active) in the test on MDA-N; 374 nM (active) in the test with MOLT-4; 171 nM (active) with NCI-H460; 126 nM (active) with NCI-H522; 258 nM (active) with OVCAR-3. The GI50 in the test on OVCAR-4 was 724 nM (active); in the test with OVCAR-8, 303 nM (active); with RXF 393, 2550 nM (inactive); in the test on SN12C, 191 nM (active); with SR, 396 nM (active); with TK-10 it was 2050 nM (inactive). Also, the GI50 in the test with U-251 was 692 nM (active).
